Experimental data from patent publication US10093630B2, “Pyrazole compounds and methods of making and using same” (ABIDE THERAPEUTICS, INC., priority 2014, dated 2018).

Assays:
Assay in all cases: In vitro competitive activity-based protein profiling (gel-based, FP-Rh or HT-01 probe)
Format in all cases: biochemical
ABHD6 = molecular target: T1, ABHD6 (Mus musculus, UniProt Q8R2Y0); conditions: for inhibition at 10 µM: 10 μM inhibitor, read-out: % Inhibition at 10 μM, C = ABHD6; for inhibition at 1 µM: 1 μM inhibitor, read-out: % Inhibition at 1 μM, C = ABHD6
T1 construct: Proteomes (mouse brain membrane fraction or cell lysates); from tissue; host or cells: mouse brain membrane fraction (or cell lysates, not specified)
T1 sequence (Q8R2Y0 1-336): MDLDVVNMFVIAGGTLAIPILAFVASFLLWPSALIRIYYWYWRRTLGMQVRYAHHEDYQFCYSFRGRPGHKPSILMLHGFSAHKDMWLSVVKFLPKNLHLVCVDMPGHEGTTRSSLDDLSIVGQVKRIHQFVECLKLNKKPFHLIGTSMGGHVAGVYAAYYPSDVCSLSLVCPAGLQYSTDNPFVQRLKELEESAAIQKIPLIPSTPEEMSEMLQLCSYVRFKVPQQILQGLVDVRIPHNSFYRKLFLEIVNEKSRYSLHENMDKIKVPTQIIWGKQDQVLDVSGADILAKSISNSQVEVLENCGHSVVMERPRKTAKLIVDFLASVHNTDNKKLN
Method: (§1) In Vitro Competitive Activity-Based Protein Profiling.
(§2) Proteomes (mouse brain membrane fraction or cell lysates) (50 μL, 1.0 mg/mL total protein concentration) were preincubated with varying concentrations of inhibitors at 37° C. After 30 min, FP-Rh or HT-01 ([…], 50 μM in DMSO) was added and the mixture was incubated for another 30 min at 37° C. Reactions were quenched with SDS loading buffer (15 μL—4×) and run on SDS-PAGE. Following gel imaging, serine hydrolase activity was determined by measuring fluorescent intensity of gel bands corresponding to MAGL, ABHD6, FAAH, and PLA2G7 using ImageJ 1.43u software.

FAAH = molecular target: T2, FAAH (Mus musculus, UniProt O08914); conditions: for inhibition at 10 µM: 10 μM inhibitor, read-out: % Inhibition at 10 μM, B = FAAH; for inhibition at 1 µM: 1 μM inhibitor, read-out: % Inhibition at 1 μM, B = FAAH
T2 construct: Proteomes (mouse brain membrane fraction or cell lysates); from tissue; host or cells: mouse brain membrane fraction (or cell lysates, not specified)
T2 sequence (O08914 1-579): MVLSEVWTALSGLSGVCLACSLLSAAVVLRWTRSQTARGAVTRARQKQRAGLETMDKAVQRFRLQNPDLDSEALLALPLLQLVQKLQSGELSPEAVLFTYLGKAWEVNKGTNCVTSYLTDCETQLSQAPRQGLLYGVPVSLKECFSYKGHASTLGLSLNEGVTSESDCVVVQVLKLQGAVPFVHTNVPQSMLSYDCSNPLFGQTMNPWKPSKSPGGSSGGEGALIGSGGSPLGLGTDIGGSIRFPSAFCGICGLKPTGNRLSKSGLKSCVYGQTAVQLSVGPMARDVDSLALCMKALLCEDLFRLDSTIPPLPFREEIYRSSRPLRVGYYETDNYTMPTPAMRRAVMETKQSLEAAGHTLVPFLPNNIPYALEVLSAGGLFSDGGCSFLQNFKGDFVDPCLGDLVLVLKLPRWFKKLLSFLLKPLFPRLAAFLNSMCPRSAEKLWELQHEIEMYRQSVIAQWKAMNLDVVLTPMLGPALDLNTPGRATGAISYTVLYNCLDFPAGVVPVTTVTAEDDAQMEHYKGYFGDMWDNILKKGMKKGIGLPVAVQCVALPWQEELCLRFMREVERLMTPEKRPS
Method: as §1, §2

MAGL = molecular target: T3, MAGL (Mus musculus, UniProt O35678); conditions: for inhibition at 10 µM: 10 μM inhibitor; for inhibition at 1 µM: 1 μM inhibitor
T3 construct: Proteomes (mouse brain membrane fraction or cell lysates); from tissue; host or cells: mouse brain membrane fraction (or cell lysates, not specified)
T3 sequence (O35678 1-303): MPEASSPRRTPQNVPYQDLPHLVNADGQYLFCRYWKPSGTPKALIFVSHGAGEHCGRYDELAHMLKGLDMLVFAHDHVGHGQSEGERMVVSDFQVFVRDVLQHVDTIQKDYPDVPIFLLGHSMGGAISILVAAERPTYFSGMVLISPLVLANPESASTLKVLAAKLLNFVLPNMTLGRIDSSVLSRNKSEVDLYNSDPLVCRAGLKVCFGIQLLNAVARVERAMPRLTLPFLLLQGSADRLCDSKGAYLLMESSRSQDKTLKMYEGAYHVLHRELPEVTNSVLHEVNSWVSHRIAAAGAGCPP
Method: as §1, §2

PLA2G7 = molecular target: T4, PLA2G7 (Mus musculus, UniProt Q60963); conditions: for inhibition at 10 µM: 10 μM inhibitor, read-out: % Inhibition at 10 μM, D = PLA2G7; for inhibition at 1 µM: 1 μM inhibitor, read-out: % Inhibition at 1 μM, D = PLA2G7
T4 construct: Proteomes (mouse brain membrane fraction or cell lysates); from tissue; host or cells: mouse brain membrane fraction (or cell lysates, not specified)
T4 sequence (Q60963 22-440): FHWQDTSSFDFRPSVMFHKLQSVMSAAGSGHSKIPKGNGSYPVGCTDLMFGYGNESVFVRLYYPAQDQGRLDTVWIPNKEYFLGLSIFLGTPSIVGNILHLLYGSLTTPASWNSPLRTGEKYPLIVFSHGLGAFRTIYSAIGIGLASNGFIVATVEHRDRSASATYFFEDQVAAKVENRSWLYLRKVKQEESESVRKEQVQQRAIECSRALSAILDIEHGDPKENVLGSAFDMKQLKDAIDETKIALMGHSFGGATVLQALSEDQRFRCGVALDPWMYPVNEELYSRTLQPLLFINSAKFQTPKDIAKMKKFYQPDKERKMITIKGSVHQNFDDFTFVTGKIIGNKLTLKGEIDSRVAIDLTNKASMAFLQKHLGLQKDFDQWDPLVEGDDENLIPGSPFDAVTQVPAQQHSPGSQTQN
Method: as §1, §2

O=C(NCCCCCc1ccccc1)n1cccn1 [Example 37, N-(5-phenylpentyl)-1H-pyrazole-1-carboxamide]
< 25%: inhibition at 10 µM (ABHD6) | inhibition at 10 µM (FAAH) | inhibition at 10 µM (MAGL) | inhibition at 10 µM (PLA2G7)

Cc1cnn(C(=O)NCCCCCc2ccccc2)c1 [Example 38, 4-Methyl-N-(5-phenylpentyl)-1H-pyrazole-1-carboxamide]
< 25%: inhibition at 10 µM (ABHD6) | inhibition at 10 µM (FAAH) | inhibition at 10 µM (MAGL) | inhibition at 10 µM (PLA2G7)

N#Cc1cnn(C(=O)NCCCCCc2ccccc2)c1 [Example 39, 4-Cyano-N-(5-phenylpentyl)-1H-pyrazole-1-carboxamide]
25 to 75%: inhibition at 10 µM (MAGL)
< 25%: inhibition at 1 µM (ABHD6) | inhibition at 10 µM (ABHD6) | inhibition at 1 µM (FAAH) | inhibition at 1 µM (MAGL) | inhibition at 1 µM (PLA2G7) | inhibition at 10 µM (PLA2G7)
> 75%: inhibition at 10 µM (FAAH)

O=C(Nc1ccc2ccccc2c1)n1cccn1 [Example 40, N-(Naphthalen-2-yl)-1H-pyrazole-1-carboxamide]
> 75%: inhibition at 10 µM (MAGL)
< 25%: inhibition at 1 µM (ABHD6) | inhibition at 10 µM (ABHD6) | inhibition at 1 µM (FAAH) | inhibition at 10 µM (FAAH) | inhibition at 1 µM (MAGL) | inhibition at 1 µM (PLA2G7) | inhibition at 10 µM (PLA2G7)

Cc1cnn(C(=O)Nc2ccc3ccccc3c2)c1 [Example 41, 4-Methyl-N-(naphthalen-2-yl)-1H-pyrazole-1-carboxamide]
< 25%: inhibition at 1 µM (ABHD6) | inhibition at 10 µM (ABHD6) | inhibition at 1 µM (FAAH) | inhibition at 10 µM (FAAH) | inhibition at 1 µM (MAGL) | inhibition at 1 µM (PLA2G7) | inhibition at 10 µM (PLA2G7)
> 75%: inhibition at 10 µM (MAGL)

N#Cc1cnn(C(=O)Nc2ccc3ccccc3c2)c1 [Example 42, 4-Cyano-N-(naphthalen-2-yl)-1H-pyrazole-1-carboxamide]
> 75%: inhibition at 10 µM (MAGL)
< 25%: inhibition at 1 µM (ABHD6) | inhibition at 10 µM (ABHD6) | inhibition at 1 µM (FAAH) | inhibition at 10 µM (FAAH) | inhibition at 1 µM (MAGL) | inhibition at 1 µM (PLA2G7) | inhibition at 10 µM (PLA2G7)

O=C(NCc1ccc2ccccc2c1)n1cccn1 [Example 43, N-(Naphthalen-2-ylmethyl)-1H-pyrazole-1-carboxamide]
> 75%: inhibition at 10 µM (FAAH)
25 to 75%: inhibition at 10 µM (MAGL)
< 25%: inhibition at 1 µM (ABHD6) | inhibition at 10 µM (ABHD6) | inhibition at 1 µM (FAAH) | inhibition at 1 µM (MAGL) | inhibition at 1 µM (PLA2G7) | inhibition at 10 µM (PLA2G7)

N#Cc1cnn(C(=O)NCc2ccc3ccccc3c2)c1 [Example 45, 4-Cyano-N-(naphthalen-2-ylmethyl)-1H-pyrazole-1-carboxamide]
< 25%: inhibition at 1 µM (ABHD6) | inhibition at 10 µM (ABHD6) | inhibition at 1 µM (FAAH) | inhibition at 1 µM (MAGL) | inhibition at 1 µM (PLA2G7) | inhibition at 10 µM (PLA2G7)
25 to 75%: inhibition at 10 µM (MAGL)
> 75%: inhibition at 10 µM (FAAH)

O=C(c1cnn(C(=O)N2CCN(Cc3ccc4c(c3)OCO4)CC2)c1)N1CCOCC1 [Example 51, (4-(Benzo[d][1,3]dioxol-5-ylmethyl)piperazin-1-yl)(4-(morpholine-4-carbonyl)-1H-pyrazol-1-yl)methanone]
> 75%: inhibition at 1 µM (ABHD6) | inhibition at 10 µM (ABHD6) | inhibition at 10 µM (FAAH) | inhibition at 10 µM (MAGL) | inhibition at 10 µM (PLA2G7)
< 25%: inhibition at 1 µM (FAAH) | inhibition at 1 µM (MAGL) | inhibition at 1 µM (PLA2G7)
100 to 1000 nM: IC50 (ABHD6; mouse brain membrane fraction or cell lysates, 30 min preincubation at 37° C., read-out: Mouse (IC50 value, nM) ABHD6)
